Laboratory results from patent US20260027121A1, “LIGAND ACTING ON ADENOSINE RECEPTORS AND COMPOSITION COMPRISING SAME FOR PREVENTION, ALLEVIATION, OR TREATMENT OF OBESITYS” (FUTURE MEDICINE CO., LTD., priority 2022, published 2026).

Legend:
[1] = tested on: brown adipocytes; assay: MitoTracker staining; type: cell-based, mouse; details: 0.1 μM, FIG. 4B
Description: The cells were exposed to MitoTracker™ Red CMXRos (1:3000, Invitrogen, M7512) at 37° C. for 15 minutes to stain mitochondria, and then fixed in 4% paraformaldehyde (PFA, Sigma, 158127). Images were acquired with an LSM800 confocal microscope (Zeiss, Germany) and analyzed with Zen software (version 3.0).

[2] = tested on: brown adipocytes; assay: Lipolysis: glycerol and free fatty acid levels in conditioned medium; type: cell-based, mouse; details: 0.1 μM, 24 hours
Description: (§1) Adipocyte precursor cells capable of differentiating into brown adipocytes were isolated from mouse brown adipose tissue. Cells were cultured in Dulbecco's modified Eagle's medium (Welgene, LM001-07) containing 10% fetal bovine serum (FBS, Gibco, 16000044) and 1% Penicillin Streptomycin (Welgene, LS202-02) at 37° C. in a humidified atmosphere with 5% CO2. When the cells reached about 100% confluency, the cells were exposed to a differentiation medium supplemented with 2.5 mM isobutyl methylxanthine (IBMX, Cayman, I5879), 0.125 mM indomethacin (Cayman, 70270), 1 μM dexamethasone (Cayman), 1 μg/mL insulin (Sigma, I9278), and 1 nM triiodothyronine (T3, Cayman, 6028) for 3 days for adipogenesis. Then, the cells were maintained in a growth medium containing 1 μg/mL insulin and 1 nM triiodothyronine (T3) for 3 days.
The free fatty acid (FFA) levels in the medium were measured using an NEFA reagent (WAKO, 436-91693) according to the manufacturer's product protocol.
Glycerol and free fatty acid (FFA) levels in a medium were measured using a glycerol reagent (Sigma Aldrich, F6428) and a NEFA reagent (WAKO, 436-91693) according to the manufacturer's product protocols.

[3] = tested on: brown adipocytes; assay: Cytotoxicity / cell viability (EZ-CYTOX); type: cell-based, mouse; details: 24 hours
Description: as §1
LJ-4378 is a dual-acting ligand with A2AAR agonist and A3AR antagonist activity. Cell viability was evaluated according to the manufacturer's instructions using EZ-CYTOX (DoGEN, EZ-3000). Absorbance was measured at 450 nm using a microplate reader (Thermo MULTISKAN GO, 8816-2015).

[4] = tested on: C57BL/6 male mice; assay: Indirect calorimetry (PhenoMaster); type: in vivo, mouse; details: 1 mg·kg-1day-1 intraperitoneally, 10 days
Description: 6-week-old C57BL/6 male mice and CIDEA reporter mice were used according to the approved protocols by Institutional Animal Care and Use Committees of Seoul National University (SNU-201107-1, SNU-201221-3) for in vivo experiments. The mice were housed under a 12 h-light/12 h-dark cycle condition with free access to a normal chow diet (NCD, Purina Lab, 38057, protein: 24.52% calories, carbohydrate: 63.07% calories, and fat: 12.41% calories) and water at 22±1° C. The mice were treated intraperitoneally with LJ-4378 (1 mg·kg-1day-1) dissolved in 0.2% DMSO (diluted in PBS) for 10 days.
(§2) Indirect calorimetry was performed using a PhenoMaster (TSE Systems) to measure expenditure (EE), VO2, VCO2, activity, and food intake. Body components were measured by nuclear magnetic resonance scanning Echo MRI-700 (Echo Medical Systems).

[5] = tested on: HFD-fed mice; assay: Diet-induced obesity model (body weight, body composition, tissue weight, H&E); type: in vivo, mouse; details: 1 mg kg-1 once daily, 10 days
Description: For a diet-induced obesity model, mice were fed a high-fat diet (HFD)(Research Diets, D12492, protein: 20% kcal, carbohydrate: 20% kcal, and fat: 60% kcal) for 8 weeks. Then, LJ-4378 (1 mg kg-1) was injected into the mice once daily for 10 days.
as §2
Mice fed a HFD were used as a diet-induced obesity model. Body weight changes were monitored during treatment, and fat and body components of the mice were measured after treatment.
For histological analysis, adipose tissue was fixed in 10% formalin and then embedded in a paraffin block. Paraffin sections were stained with hematoxylin/eosin (H&E).

[6] = tested on: CIDEA reporter mice; assay: qPCR of brown adipocyte markers in brown adipose tissue; type: in vivo, mouse; details: BAT, 1 mg kg-1/day, 10 days
Description: Mice were treated with vehicle (CTL), LJ-4378 (LJ, 1 mg kg-1/day), […] (CGS21680, 1 mg kg-1/day), or A3 antagonist (LJ-4433, 1 mg kg-1/day) for 10 days. (A-B) Representative bioluminescence in dorsal and lateral positions (n=3, mean±SEM, ** p<0.01, **** p<0.0001). (C) Representative ex vivo fluorescence image and quantification of fluorescence intensity of BAT and iWAT (n=3, mean±SEM, ** p<0.01, **** p<0.0001). (D) qPCR analysis of UCP1 and CIDEAM RNA expression levels of brown adipose tissue (BAT) (n=3, mean±SEM, * p<0.05, ** p<0.01, *** p<0.001).
qPCR analysis was performed to investigate the adenosine receptor expression levels in brown adipocytes differentiated from immortalized brown adipocyte precursor cells. Primers used for the qPCR analysis are listed in the following [Table 3].

[7] = tested on: brown adipocytes; assay: Immunoblot of mitochondrial proteins and UCP1 in brown adipocytes; type: cell-based, mouse
Description: as §1
In the case of Western blots, the primary antibodies used for Western blots are summarized in [Table 2] above. An anti-rabbit horseradish peroxidase antibody (1:3000, Thermo Fisher, 31460) and an anti-mouse horseradish peroxidase antibody (1:3000, Jackson, 115-035-174) were used as secondary antibodies. All antibodies were diluted in a blocking buffer (5% skimmed milk or 5% bovine serum albumin in TBST). Western blot images were acquired using a Fusion Solo chemiluminescence imaging system (Vilber Lourmat) and analyzed with Evolution Capt software (version 17.03). NIH ImageJ software was used for quantification.

SMILES: CCCCC#Cc1nc(N)c2ncn([C@@H]3SC[C@@H](O)[C@H]3O)c2n1 [LJ-4378, 2-(6-amino-2-(hex-1-yn-1-yl)-9H-purin-9-yl)tetrahydrothiophene-3,4-diol]
- mitochondrial membrane potential (MitoTracker staining), fold increase [1]: 2.12±0.06 fold
- free fatty acid (FFA) level, fold increase ([2]; FIG. 2): 1.92±0.03 fold
- glycerol level in conditioned medium, fold change ([2]; FIG. 3B): 1.61±0.07 fold
- FFA level in conditioned medium, fold change ([2]; FIG. 3C): 1.59±0.1 fold
- concentrations with no effect on cell viability [3]: less than 100 μM
- increase of energy expenditure [4]: 17.0%
- increase of oxygen consumption [4]: 17.8%
- reduction in body weight [5]: 8.24%
- reduction in fat mass [5]: 24.18%
- reduction in weight of gWAT [5]: 18.6%
- reduction in weight of iWAT [5]: 30.1%
- Cidea mRNA level, fold increase [6]: 1.72±0.06 fold
- Ucp1 mRNA level, fold increase [6]: 2.13±0.21 fold
- COXIV expression level, fold increase ([7]; 0.1 μM, 24 hours, FIG. 4A): 2.18±0.15 fold
- UCP1 expression level, fold increase ([7]; 0.1 μM, 24 hours, FIG. 4A): 2.93±0.23 fold
- COXIV, fold increase ([7]; 0.1 μM, 24 hours, FIG. 4D): 2.53±0.08 fold
- MCAD, fold increase ([7]; 0.1 μM, 24 hours, FIG. 4D): 4.91±0.02 fold
- UCP1, fold increase ([7]; 0.1 μM, 24 hours, FIG. 4D): 2.67±0.38 fold
- ATP5A protein, fold increase ([7]; 10^−5, 48 hours): 3.72±0.04 fold
- MCAD protein, fold increase ([7]; 10^−5, 48 hours): 2.13±0.03 fold
- SDHB protein, fold increase ([7]; 10^−5, 48 hours): 3.71±0.25 fold
- UQCRC2 protein, fold increase ([7]; 10^−5, 48 hours): 4.02±0.08 fold
- ATP5A protein, fold increase ([7]; 10^−7, 48 hours): 3.94±0.06 fold
- MCAD protein, fold increase ([7]; 10^−7, 48 hours): 1.79±0.09 fold
- SDHB protein, fold increase ([7]; 10^−7, 48 hours): 3.41±0.47 fold
- UQCRC2 protein, fold increase ([7]; 10^−7, 48 hours): 4.21±0.13 fold
- ATP5A protein, fold increase ([7]; 10^−9 M, 48 hours): 3.51±0.05 fold
- MCAD protein, fold increase ([7]; 10^−9 M, 48 hours): 1.79±0.03 fold
- SDHB protein, fold increase ([7]; 10^−9 M, 48 hours): 3.47±0.18 fold
- UQCRC2 protein, fold increase ([7]; 10^−9 M, 48 hours): 3.96 fold
- ATP5A protein, fold increase ([7]; 10^−11 M, 48 hours): 2.20±0.08 fold
- MCAD protein, fold increase ([7]; 10^−11 M, 48 hours): 1.53±0.03 fold
- SDHB protein, fold increase ([7]; 10^−11 M, 48 hours): 1.87±0.28 fold
- UQCRC2 protein, fold increase ([7]; 10^−11 M, 48 hours): 2.15±0.03 fold
